What was measured:
[1] = system: ATM-deficient HeLa cells; test: FEN1 inhibitor cytotoxicity, ATM-deficient HeLa; type: cell-based; details: vs HeLa control
[2] = system: PEO1 cells; test: Cell cycle progression, PEO1; type: cell-based, human; details: FEN1i monotherapy
Description: (§1) with ice cold PBS and fixed in 70% ethanol for 1h at -20°C. After removal of the fixative solution by centrifugation, cells were stained with 2 µg/ml of phospho-Histone (γH2AX) Ser139 (16202A, Millipore, UK) to detect DSBs.
(§2) Cell cycle progression: Cells were treated with 20 µg/ml RNase A (12091021, Invitrogen) and then 10 µg/ml Propidium Iodide (P4170, Sigma Aldrich) was added to determine the cell cycle distribution. The samples were analysed on a Beckman-Coulter FC500 flow cytometer using a 488nm laser for excitation and emission data for PI collected using a 620nm bandpass filter (FL3) and a 525nm bandpass filter (FL1) for FITC-anti-phospho-Histone H2A.X. […]
Graphical representation and statistical analysis was performed in GraphPad Prism 7 (GraphPad, La Jolla, USA).
3D Spheroid assays: A2780_control and A2780 FEN1_ KO as well as A2780cis_control and A2780cis FEN1_ KO cells were seeded at 4500 cells/cm2 density in ultra-low attachment 6-well plates (174932, Thermo Fisher Scientific) and cultured in 3D Tumorsphere Medium (C28070, PromoCell, UK) at 37°C in a 5% CO2 atmosphere. Cells were keep in culture for 7-10 days, toping up with fresh medium every two days until spheroids structures were formed.

[3] = system: POLβ KO A2780cis cells; test: γH2AX analysis, POLβ KO A2780cis; type: cell-based, human; details: FEN1i-treated
Description: Graphical representation and statistical analysis of mean tail moment was performed in GraphPad Prism 6 (GraphPad, La Jolla, USA). All experiments were done in duplicate three times.
γH2AX FACS: For monitoring DNA double strand break accumulation by γH2AX FACS, 1.05×104 Cells/cm2 were seeded in 6-well plates and left overnight at 37°C in a 5% CO 2 atmosphere. Cisplatin (5µM) or FEN1i (10µM) was later added to cells and incubated for 24h and 48h at 37°C in a 5% CO2 atmosphere. Cells were collected by trypsinization, washed […]
as §1, §2
Graphical representation and statistical analysis was performed in GraphPad Prism 7 (GraphPad, La Jolla, USA). […]

[4] = system: BRCA2_KD HeLa silenciX cells; test: Clonogenic assay, BRCA2_KD HeLa; type: cell-based; details: vs control HeLa cells
Description: (§3) Clonogenic assay: In the clonogenic assay (colony formation assays), 32 cells/cm2 were seeded in 6-well plates and left at 37°C in a 5% CO2 atmosphere. Cisplatin (5µM) and/or FEN1i (10µM) and/or Importazole (5 µM, Selleckem, S8446 ) were added at the indicated concentrations and the plates were left at 37 °C in a 5% CO 2 atmosphere for 14 days. Later, the plates were washed with PBS, fixed and stained with a crystal violet, acetic acid and methanol solution and colonies were counted.
(§4) Nuclear and cytoplasmic extract: Cells were harvest by trypsinization, washed with PBS and centrifuged at 1000×g for 5min. […] Protein level were then quantified prior to use in western blots.
(§5) BCA protein quantification: Protein quantification was done using the Pierce BCA kit assay by Thermo Fisher Scientific. […] The plate was incubated at 37°C during 30 min in the dark and the absorbance was measured by FLUOstar OPTIMA, UK/ Infinite® F50 (UK) microplate reader at 590 nm. […]
(§6) Western Blot Analysis: Cells were harvested and lysed in RIPA buffer (R0278, Sigma) with the addition of protease cocktail inhibitor (P8348, Sigma), phosphatase inhibitor cocktail 2 (P5726, Sigma) and phosphatase inhibitor cocktail 3 (P0044, Sigma) and stored at - 20°C. Protein was quantified using BCA Protein Assay kit (23225, Thermo Fisher). […]

[5] = system: A2780 cells; test: Clonogenic assay, A2780; type: cell-based, human
Description: as §3, with “counted. […]” for “counted.”

[6] = system: FEN1 nuclear level in A2780 cells; test: Nuclear extract western blot for FEN1, A2780; type: cell-based, human; details: 5 µM cisplatin, 24 h
Description: as §3, §4, §5, §6

Structure (SMILES) | sensitivity to FEN1 inhibitor [1] | cell cycle effect [2] | DSBs (γH2AX) [3] | sensitivity to FEN1 inhibitor [4] | cisplatin sensitivity [5] | nuclear level of FEN1 after cisplatin [6]
Cc1csc2c1c(=O)n(O)c(=O)n2-c1ccccc1 [PTPD, 3-hydroxy-5-methyl-1-phenylthieno [2,3 d]pyrimidine-2,4(1H,3H)-dione] | did not observe increased sensitivity | S-phase and G2/M-phase cell cycle arrest | increased DSBs | sensitive to FEN1i compared to control HeLa cells |  | 
N.N.[Cl][Pt][Cl] [cisplatin] |  |  |  |  | cisplatin-sensitive | significantly decreased
